Laboratory results as given in the supplement of paper PMC10307832.

Experiments:
Assay in all cases: relative viability (nuclei count vs DMSO), 5 days (fraction); higher = more cells survive
[1] = compound: CCN1C(=O)C2=CC(=C(N=C2N(C1=O)C3CC3)N)C(=O)N + Nc1ncn([C@H]2C[C@H](O)[C@@H](CO)O2)c(=O)n1 [Decitabine] (partner 2 µM)
Method in brief: (§1)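 After 5 days of treatment, lung cancer cells in 1536-well plates were fixed and stained in a single step (final 0.05% Triton X-100, 1% formaldehyde, 1 ug/ml Hoechst) and their nuclei counted on 4× images. Treatment had been applied by pin tool the day after seeding as one drug alone or as a fixed anchor-drug dose with five library-drug doses (not always all listed) in √10 steps. Relative viability is the nuclei count of treated wells divided by that of vehicle wells, and values are medians of duplicate plates.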

[2] = compound: CCN1C(=O)C2=CC(=C(N=C2N(C1=O)C3CC3)N)C(=O)N + O=C(CCCCCCC(=O)Nc1ccccc1)NO [Vorinostat] (partner 1 µM)
Method in brief: as §1

[3] = compound: CCN1C(=O)C2=CC(=C(N=C2N(C1=O)C3CC3)N)C(=O)N + O=C(c1cc(Cc2n[nH]c(=O)c3ccccc23)ccc1F)N1CCN(C(=O)C2CC2)CC1 [Olaparib] (partner 8 µM)
Method in brief: as §1

[4] = compound: CCN1C(=O)C2=CC(=C(N=C2N(C1=O)C3CC3)N)C(=O)N + Cc1nc(NC(=O)N2CCC[C@H]2C(N)=O)sc1-c1ccnc(C(C)(C)C(F)(F)F)c1 [Alpelisib] (partner 2 µM)
Method in brief: as §1

[5] = compound: CCN1C(=O)C2=CC(=C(N=C2N(C1=O)C3CC3)N)C(=O)N + Nc1nc2[nH]cc(CCc3ccc(C(=O)N[C@@H](CCC(=O)O)C(=O)O)cc3)c2c(=O)[nH]1 [Pemetrexed] (partner 0.2 µM)
Method in brief: as §1

Cell Line	relative viability ([1]; first compound 0.253 µM)	relative viability ([1]; first compound 0.8 µM)	relative viability ([1]; first compound 2.53 µM)	relative viability ([1]; first compound 8 µM)	relative viability ([2]; first compound 0.253 µM)	relative viability ([2]; first compound 0.8 µM)	relative viability ([2]; first compound 2.53 µM)	relative viability ([2]; first compound 8 µM)	relative viability ([3]; first compound 0.253 µM)	relative viability ([3]; first compound 0.8 µM)	relative viability ([3]; first compound 2.53 µM)	relative viability ([3]; first compound 8 µM)	relative viability ([4]; first compound 0.253 µM)	relative viability ([4]; first compound 0.8 µM)	relative viability ([4]; first compound 2.53 µM)	relative viability ([4]; first compound 8 µM)	relative viability ([5]; first compound 0.253 µM)	relative viability ([5]; first compound 0.8 µM)	relative viability ([5]; first compound 2.53 µM)	relative viability ([5]; first compound 8 µM)
NCI-H3122	0.396	0.432	0.434	0.427	0.912	0.975	0.968	0.988	0.636	0.659	0.624	0.581	0.748	0.755	0.717	0.819	0.217	0.198	0.202	0.192
A549	0.215	0.341	0.218	0.11						0.305	0.302	0.392	0.698	0.858	0.746	0.931				
NCI-H838	0.469	0.426	0.411	0.451	0.756	0.694	0.692	0.752	0.737	0.764	0.746	0.722	1.02	0.985	0.934	0.906	0.239	0.274	0.242	0.248
NCI-H441	0.305	0.244	0.265	0.258	0.83	0.851	0.994	0.906	0.559	0.578	0.499	0.649	0.957	0.756	0.637	0.598	0.272	0.246	0.263	0.26
HOP-62	0.242	0.218	0.161	0.184	0.622	0.71	0.58	0.579	0.349	0.488	0.41	0.572	1	1.06	0.778	0.964	0.278	0.353	0.303	0.345
SW 1573	0.573	0.582	0.434	0.476	0.824	0.848	0.624	0.682	0.748	0.431	0.519	0.532	0.731	0.844	0.644	0.849	0.855	0.884	0.844	0.791
HCC-44	0.999	0.999	0.885	0.872	1.13	1.05	1.06	1.04	0.982	0.976	0.999	0.975	0.829	0.802	0.778	0.784	0.588	0.641	0.613	0.668
LCLC-103H	0.723	0.699	0.753	0.702	0.798	0.806	0.761	0.817	0.739	0.754	0.74	0.772	0.935	0.962	0.907	0.934	0.46	0.461	0.46	0.453
NCI-H1915	0.243	0.261	0.252	0.249	0.49	0.546	0.493	0.436	0.271	0.284	0.261	0.286	1.1	0.985	1.01	1.06	0.5	0.507	0.493	0.509
ChaGo-K-1	0.529	0.555	0.489	0.449	0.793	0.764	0.72	0.748	0.442	0.437	0.404	0.434					0.272	0.264	0.263	0.246
PC-3 [JPC-3]	0.81		0.871	0.886	0.93		1.22	1.08	1.13		1.18	1.21	1.06	1	0.981	1.16	1.1		1.26	1.2
NCI-H1703									0.702	0.616	0.384	0.379	0.339	0.342	0.31	0.368				
NCI-H727	0.882	0.842	0.802	0.676	1.27	1.11	1.26	1.07	0.81	0.705	0.539	0.774	0.568	0.572	0.598	0.658				
NCI-H2228					0.933	0.572	0.676	0.679	0.827	0.723	0.577	0.282	0.622	0.669	0.709	1.16	0.35	0.464	0.336	0.372
NCI-H1650	0.351	0.404	0.43	0.401	0.562	0.614	0.494	0.622	0.707	0.665	0.714	0.733					0.38	0.324	0.333	0.382
NCI-H1792	0.652	0.54	0.494	0.576					0.44	0.387	0.292	0.667	0.777	0.687	0.759	0.774	0.733	0.77	0.911	0.909
NCI-H1563													0.983	0.982	0.913	0.783	0.762	0.799	0.965	0.742
IA-LM					0.983	0.873	0.905	1.1	0.92	0.818	0.739	0.845	0.743	0.816	0.584	0.696				
CAL-12T					0.771	0.642	0.659	0.803	0.734	0.717	0.682	0.658	1.07	1.07	0.964	1.21	1.02	1.31	1.06	1.15
